Measurements: patent US5663331A, “Cephalosporin compounds” (Il-Dong Pharm. Co., Ltd., priority 1992, dated 1997)
Values after ≈ are worked out from the molar mass of the structure shown.

Columns and labels:
Assay type in all cases: cell-based
[1] = system: Bacillus subtilis ATCC 6633; test: MIC, two-fold dilution method, Bacillus subtilis ATCC 6633; conditions: 10^6 CFU per ml, 37° C., 18 to 20 hours; for MIC: ATCC6633, Muller Hinton Broth, read-out: Antibacterial Activity (MIC); for Antibacterial Activity (MIC): Muller Hinton Broth
Method: (§1) In order to illustrate the usefulness of the invented compounds, the minimal inhibitory concentrations-(MIC) thereof against standard strains were determined and compared with Cefotaxime, a known compound. Also, the in vitro antibacterial activity was determined by a two-fold dilution method as described below: That is, the two-fold serial dilutions of the compound were made and dispersed in Muller Hinton Broth medium. Standard test strain which had the 10^6 CFU per ml was inoculated on the medium, and was incubated at 37° C. for 18 to 20 hours.

[2] = system: Staphylococcus aureus ATCC 65389; test: MIC, two-fold dilution method, Staphylococcus aureus ATCC 65389; conditions: 10^6 CFU per ml, 37° C., 18 to 20 hours; for MIC: ATCC65389, Muller Hinton Broth, read-out: Antibacterial Activity (MIC); for Antibacterial Activity (MIC): Muller Hinton Broth
Method: as §1

[3] = system: Staphylococcus epidermidis ATCC 12228; test: MIC, two-fold dilution method, Staphylococcus epidermidis ATCC 12228; conditions: 10^6 CFU per ml, 37° C., 18 to 20 hours; for MIC: ATCC12228, Muller Hinton Broth, read-out: Antibacterial Activity (MIC); for Antibacterial Activity (MIC): Muller Hinton Broth
Method: as §1

[4] = system: Streptococcus faecalis ATCC 10541; test: MIC, two-fold dilution method, Streptococcus faecalis ATCC 10541; conditions: 10^6 CFU per ml, 37° C., 18 to 20 hours; for MIC: Enterococcus faecalis, ATCC10541, Muller Hinton Broth, read-out: Antibacterial Activity (MIC); for Antibacterial Activity (MIC): Muller Hinton Broth
Method: as §1

[5] = system: Pseudomonas aeurginosa NCTC 10490; test: MIC, two-fold dilution method, Pseudomonas aeurginosa NCTC 10490; conditions: 10^6 CFU per ml, 37° C., 18 to 20 hours; for MIC: NCTC10490, Muller Hinton Broth, read-out: Antibacterial Activity (MIC); for Antibacterial Activity (MIC): Muller Hinton Broth
Method: as §1

[6] = system: Esherichia coli ATCC 25922; test: MIC, two-fold dilution method, Esherichia coli ATCC 25922; conditions: Muller Hinton Broth, 10^6 CFU per ml, 37° C., 18 to 20 hours; for MIC: read-out: Antibacterial Activity (MIC)
Method: as §1

[7] = system: Klebsiella pneumoniae ATCC 10031; test: MIC, two-fold dilution method, Klebsiella pneumoniae ATCC 10031; conditions: 10^6 CFU per ml, 37° C., 18 to 20 hours; for MIC: ATCC10031, Muller Hinton Broth, read-out: Antibacterial Activity (MIC); for Antibacterial Activity (MIC): Muller Hinton Broth
Method: as §1

MIC [1] | MIC [2] | MIC [3] | MIC [4] | MIC [5] | MIC [6] | MIC [7] | Antibacterial Activity (MIC) [1] | Antibacterial Activity (MIC) [2] | Antibacterial Activity (MIC) [3] | Antibacterial Activity (MIC) [4] | Antibacterial Activity (MIC) [5] | Antibacterial Activity (MIC) [6] | Antibacterial Activity (MIC) [7] | SMILES
0.39 µg/mL (≈ 0.488 µM) | 0.78 µg/mL (≈ 0.976 µM) | 1.56 µg/mL (≈ 1.95 µM) | 0.78 µg/mL (≈ 0.976 µM) | 0.78 µg/mL (≈ 0.976 µM) | 0.78 µg/mL (≈ 0.976 µM) | 0.39 µg/mL (≈ 0.488 µM) |  |  |  |  |  |  |  | CCN1CCN(c2cc3c(cc2F)c(SCC2=C(C(=O)[O-])N4C(=O)C(NC(=O)/C(=N\OC(C)(C)C(=O)O)c5csc(N)n5)C4SC2)cc[n+]3C2CC2)CC1 (stereo not drawn) [Compound I-59, 7-[(Z)-2-(2-aminothiazol-4-yl)-2-(2-carboxyprop-2-oxyimino)acetamido]-3-[1-cyclopropyl-6-fluoro-7-(1-ethylpiperazinyl)quinolinium-4-yl]thiomethyl-3-cephem-4-carboxylate]
0.2 µg/mL (≈ 0.271 µM) | 0.2 µg/mL (≈ 0.271 µM) | 0.78 µg/mL (≈ 1.06 µM) | 0.1 µg/mL (≈ 0.135 µM) | 1.56 µg/mL (≈ 2.11 µM) | 6.25 µg/mL (≈ 8.46 µM) | 1.56 µg/mL (≈ 2.11 µM) |  |  |  |  |  |  |  | C#CCO/N=C(\C(=O)NC1C(=O)N2C(C(=O)[O-])=C(CSc3cc[n+](CC)c4cc(N5CCN(CC)CC5)c(F)cc34)CSC12)c1csc(N)n1 (stereo not drawn) [Compound I-47, 7-[(Z)-2-(2-aminothiazol-4-yl)-2-(propargyloxyimino)acetamido]-3-[1-ethyl-6-fluoro-7-(1-ethylpiperazinyl)quinolinium-4-yl]thiomethyl-3-cephem-4-carboxylate]
0.2 µg/mL (≈ 0.27 µM) | 0.39 µg/mL (≈ 0.526 µM) | 0.78 µg/mL (≈ 1.05 µM) | 0.39 µg/mL (≈ 0.526 µM) | 0.78 µg/mL (≈ 1.05 µM) | 0.78 µg/mL (≈ 1.05 µM) | 0.39 µg/mL (≈ 0.526 µM) |  |  |  |  |  |  |  | C=CCO/N=C(\C(=O)NC1C(=O)N2C(C(=O)[O-])=C(CSc3cc[n+](CC)c4cc(N5CCN(CC)CC5)c(F)cc34)CSC12)c1csc(N)n1 (stereo not drawn) [Compound I-31]
0.2 µg/mL (≈ 0.259 µM) | 1.56 µg/mL (≈ 2.02 µM) | 0.78 µg/mL (≈ 1.01 µM) | 0.2 µg/mL (≈ 0.259 µM) | 0.39 µg/mL (≈ 0.505 µM) | 0.78 µg/mL (≈ 1.01 µM) | 0.39 µg/mL (≈ 0.505 µM) |  |  |  |  |  |  |  | CCN1CCN(c2cc3c(cc2F)c(SCC2=C(C(=O)[O-])N4C(=O)C(NC(=O)/C(=N\OC(C)(C)C(=O)O)c5csc(N)n5)C4SC2)cc[n+]3C)CC1 (stereo not drawn) [Compound I-55, 7-[(Z)-2-(2-aminothiazol-4-yl)-2-(2-carboxyprop-2-oxyimino)acetamido]-3-[1-methyl-6-fluoro-7-(1-ethylpiperazinyl)quinolinium-4-yl]thiomethyl-3-cephem4-carboxylate]
0.39 µg/mL (≈ 0.518 µM) | 0.78 µg/mL (≈ 1.04 µM) | 0.78 µg/mL (≈ 1.04 µM) | 0.39 µg/mL (≈ 0.518 µM) | 0.78 µg/mL (≈ 1.04 µM) | 1.56 µg/mL (≈ 2.07 µM) | 0.78 µg/mL (≈ 1.04 µM) |  |  |  |  |  |  |  | C=CCO/N=C(\C(=O)NC1C(=O)N2C(C(=O)[O-])=C(CSc3cc[n+](CC=C)c4cc(N5CCN(CC)CC5)c(F)cc34)CSC12)c1csc(N)n1 (stereo not drawn) [Compound I-35, 7-[(Z)-2-(2-aminothiazol-4-yl)-2-(allyloxyimino)acetamido]-3-[1-allyl-6-fluoro-7-(1-ethylpiperazinyl)quinolinium-4-yl]thiomethyl-3-cephem-4-carboxylate]
0.1 µg/mL (≈ 0.14 µM) | 0.78 µg/mL (≈ 1.09 µM) | 0.39 µg/mL (≈ 0.547 µM) | 0.2 µg/mL (≈ 0.281 µM) | 3.13 µg/mL (≈ 4.39 µM) | 3.13 µg/mL (≈ 4.39 µM) | 1.56 µg/mL (≈ 2.19 µM) |  |  |  |  |  |  |  | C=CC[n+]1ccc(SCC2=C(C(=O)[O-])N3C(=O)C(NC(=O)/C(=N\OC)c4csc(N)n4)C3SC2)c2cc(F)c(N3CCN(C)CC3)cc21 (stereo not drawn) [Compound I-14, 7-[(Z)-2-(2-aminothiazol-4-yl)-2-(methoxyimino)acetamido]-3-[1-allyl-6-fluoro-7-(N-methylpiperazinyl)quinolinium-4-yl]thiomethyl-3-cephem-4-carboxylate]
 |  |  |  |  |  |  | 0.2 µg/mL | 0.2 µg/mL | 0.39 µg/mL | 0.78 µg/mL | 1.56 µg/mL | 1.56 µg/mL | 0.39 µg/mL | C=CC[n+]1ccc(SCC2=C(C(=O)[O-])N3C(=O)C(NC(=O)/C(=N\OC)c4csc(N)n4)C3SC2)c2cc(F)c(N3CCNCC3C)cc21 (stereo not drawn) [Compound I-16, 7-[(Z)-2-(2-aminothiazol-4-yl)-2-(methoxyimino)acetamido]-3-[1-allyl-6-fluoro-7-(2-methylpiperazinyl)quinolinium-4-yl]thiomethyl 3-cephem-4-carboxylate]
0.78 µg/mL (≈ 1.06 µM) | 3.13 µg/mL (≈ 4.25 µM) | 3.13 µg/mL (≈ 4.25 µM) | 1.56 µg/mL (≈ 2.12 µM) | 3.13 µg/mL (≈ 4.25 µM) | 3.13 µg/mL (≈ 4.25 µM) | 3.13 µg/mL (≈ 4.25 µM) |  |  |  |  |  |  |  | C#CCO/N=C(\C(=O)NC1C(=O)N2C(C(=O)[O-])=C(CSc3cc[n+](CC=C)c4cc(N5CCN(C)CC5)c(F)cc34)CSC12)c1csc(N)n1 (stereo not drawn) [Compound I-50, 7-[(Z)-2-(2-aminothiazol-4-yl)-2-(propargyloxyimino)acetamido]-3-[1-allyl-6-fluoro-7-(N-methylpiperazinyl)quinolinium-4-yl]thiomethyl-3-cephem-4-carboxylate]
0.78 µg/mL (≈ 1.08 µM) | 0.78 µg/mL (≈ 1.08 µM) | 1.56 µg/mL (≈ 2.15 µM) | 0.39 µg/mL (≈ 0.538 µM) | 3.13 µg/mL (≈ 4.32 µM) | 3.13 µg/mL (≈ 4.32 µM) | 1.56 µg/mL (≈ 2.15 µM) |  |  |  |  |  |  |  | C=CCO/N=C(\C(=O)NC1C(=O)N2C(C(=O)[O-])=C(CSc3cc[n+](CC=C)c4cc(N5CCNCC5)c(F)cc34)CS[C@H]12)c1csc(N)n1 (stereo partly drawn) [Compound I-33, 7-[(Z)-2-(2-aminothiazol-4-yl)-2-(allyloxyimino)acetamido]-3-(1-allyl-6-fluoro-7-piperazinylquinolinium-4-yl)thiomethyl-3-cephem-4-carboxylate]
0.78 µg/mL (≈ 1.04 µM) | 3.13 µg/mL (≈ 4.17 µM) | 1.56 µg/mL (≈ 2.08 µM) | 1.56 µg/mL (≈ 2.08 µM) | 1.56 µg/mL (≈ 2.08 µM) | 0.78 µg/mL (≈ 1.04 µM) | 0.78 µg/mL (≈ 1.04 µM) |  |  |  |  |  |  |  | C#CCO/N=C(\C(=O)NC1C(=O)N2C(C(=O)[O-])=C(CSc3cc[n+](CC=C)c4cc(N5CCN(CC)CC5)c(F)cc34)CSC12)c1csc(N)n1 (stereo not drawn) [Compound I-51, 7-[(Z)-2-(2-aminothiazol-4-yl)-2-(propargyloxyimino)acetamido]-3-[1-allyl-6-fluoro-7-(1-ethylpiperazinyl)quinolinium-4-yl]thiomethyl-3-cephem-4-carboxylate]
 |  |  |  |  |  |  | 0.1 µg/mL | 0.39 µg/mL | 0.78 µg/mL | 0.39 µg/mL | 1.56 µg/mL | 3.13 µg/mL | 1.56 µg/mL | C#CCO/N=C(\C(=O)NC1C(=O)N2C(C(=O)[O-])=C(CSc3cc[n+](CC)c4cc(N5CCNCC5C)c(F)cc34)CS[C@H]12)c1csc(N)n1 (stereo partly drawn) [Compound I-48, 7-[(Z)-2-(2-aminothiazol-4-yl)-2-(propargyloxyimino)acetamido]-3-[1-ethyl-6-fluoro-7-(2-methylpiperazinyl)quinolinium-4-yl]thiomethyl-3-cephem-4-carboxylate]
0.1 µg/mL (≈ 0.146 µM) | 0.2 µg/mL (≈ 0.291 µM) | 0.2 µg/mL (≈ 0.291 µM) | 0.1 µg/mL (≈ 0.146 µM) | 3.13 µg/mL (≈ 4.56 µM) | 1.56 µg/mL (≈ 2.27 µM) | 0.78 µg/mL (≈ 1.14 µM) |  |  |  |  |  |  |  | CC[n+]1ccc(SCC2=C(C(=O)[O-])N3C(=O)C(NC(=O)/C(=N\OC)c4csc(N)n4)C3SC2)c2cc(F)c(N3CCNCC3)cc21 (stereo not drawn) [Compound I-9, 7-[(Z)-2-(2-aminothiazol-4-yl)-2-(methoxyimino)acetamido]-3-(1-ethyl-6-fluoro-7-piperazinylquinolinum-4-yl)thiomethyl-3-cephem-4-carboxylate]
0.39 µg/mL (≈ 0.547 µM) | 0.78 µg/mL (≈ 1.09 µM) | 0.78 µg/mL (≈ 1.09 µM) | 0.39 µg/mL (≈ 0.547 µM) | 3.13 µg/mL (≈ 4.39 µM) | 1.56 µg/mL (≈ 2.19 µM) | 0.39 µg/mL (≈ 0.547 µM) |  |  |  |  |  |  |  | C=CCO/N=C(\C(=O)NC1C(=O)N2C(C(=O)[O-])=C(CSc3cc[n+](CC)c4cc(N5CCNCC5)c(F)cc34)CS[C@H]12)c1csc(N)n1 (stereo partly drawn) [Compound I-29, 7-[(Z)-2-(2-aminothiazol-4-yl)-2-(allyloxyimino)acetamido]-3-(1-ethyl-6-fluoro-7-piperazinylquinolinium-4-yl)thiomethyl-3-cephem-4-carboxylate]
0.39 µg/mL (≈ 0.556 µM) | 0.39 µg/mL (≈ 0.556 µM) | 1.56 µg/mL (≈ 2.23 µM) | 1.56 µg/mL (≈ 2.23 µM) | 6.25 µg/mL (≈ 8.92 µM) | 12.5 µg/mL (≈ 17.8 µM) | 0.78 µg/mL (≈ 1.11 µM) |  |  |  |  |  |  |  | CC[n+]1ccc(SCC2=C(C(=O)[O-])N3C(=O)C(NC(=O)/C(=N\OC)c4csc(N)n4)C3SC2)c2cc(F)c(N3CCN(C)CC3)cc21 (stereo not drawn) [Compound I-10, 7-[(Z)-2-(2-aminothiazol-4-yl)-2-(methoxyimino)acetamido]-3-(1-ethyl-6-fluoro-7-(N-methylpiperazinyl)quinolinium-4-yl]thiomethyl-3-cephem-4-carboxylate]
 |  |  |  |  |  |  | 0.2 µg/mL | 0.78 µg/mL | 0.39 µg/mL | 0.2 µg/mL | 1.56 µg/mL | 1.56 µg/mL | 0.1 µg/mL | CO/N=C(\C(=O)NC1C(=O)N2C(C(=O)[O-])=C(CSc3cc[n+](C4CC4)c4cc(-n5cnc(C)c5)c(F)cc34)CSC12)c1csc(N)n1 (stereo not drawn) [Compound I-20, 7-[(Z)-2-(2-aminothiazol-4-yl)-2-(methoxyimino)acetamido]-3-[1-cyclopropyl-6-fluoro-7-(4-methylimidazolyl)quinolinium-4-yl]thiomethyl-3-cephem-4-carboxylate]
